Assays:
Type in all cases: in vitro ADME
UGT1A3 = target: T1, UGT1A3 (Homo sapiens, UniProt P35503); experiment: Recombinant UGT1A3-catalyzed 4-MU glucuronidation inhibition; conditions: pH 7.4, probe 4-methylumbelliferone (4-MU), UGT1A3, 100 μM of compound, 4-MU substrate, read-out: residual activity
T1 construct: purchased BD Gentest Corp. (Woburn, MA, USA); host or cells: baculovirus-infected insect cells
T1 sequence (P35503 29-534): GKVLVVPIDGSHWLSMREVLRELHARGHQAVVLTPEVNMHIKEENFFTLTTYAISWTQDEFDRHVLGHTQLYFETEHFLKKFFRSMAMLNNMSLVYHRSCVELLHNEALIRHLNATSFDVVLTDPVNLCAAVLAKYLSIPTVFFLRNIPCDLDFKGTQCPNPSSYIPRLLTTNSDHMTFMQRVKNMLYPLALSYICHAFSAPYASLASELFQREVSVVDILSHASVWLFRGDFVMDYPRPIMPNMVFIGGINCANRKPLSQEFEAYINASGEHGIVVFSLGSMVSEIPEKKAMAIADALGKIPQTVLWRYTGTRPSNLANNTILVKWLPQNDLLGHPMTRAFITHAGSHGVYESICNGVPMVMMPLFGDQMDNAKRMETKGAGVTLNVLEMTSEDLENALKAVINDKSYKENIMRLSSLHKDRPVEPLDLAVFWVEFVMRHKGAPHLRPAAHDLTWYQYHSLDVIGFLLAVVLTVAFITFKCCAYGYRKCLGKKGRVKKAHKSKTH
Excerpt: (§1) 4-Methylumbelliferone (4-MU), 4-methylumbelliferone-β-D-glucuronide (4-MUG), Tris-HCl, 7-hydroxycoumarin, and uridine-5′-diphosphoglucuronic acid (UDPGA) (trisodium salt) were purchased from Sigma-Aldrich (St. Louis, MO). Recombinant human UGT isoforms (UGT1A1, UGT1A3, UGT1A4, UGT1A6, UGT1A7, UGT1A8, UGT1A9, UGT1A10, UGT2B4, UGT2B7, and UGT2B15) expressed in baculovirus-infected insect cells were obtained from BD Gentest Corp. (Woburn, MA, USA). Ophiopogonin D (OD), ophiopogonin D′ (OD′), methylophiopogonanone A (MA), methylophiopogonanone B (MB), and ruscorectal (RU) were purchased from Sichuan Weikeqi Biotechnology Company (Chengdu, Sichuan, China). The purity of these compounds was above 95%. All other reagents were of HPLC grade or of the highest grade commercially available.
(§2) 4-MU, the nonspecific probe substrate for all the UGT isoforms except UGT1A4, was used in the present study to initially screen the inhibition potential of maidong's components towards UGT isoforms as previously reported. In brief, the incubation system (total volume = 200 μL) consisted of recombinant UGTs, 5 mM UDPGA, 5 mM MgCl2, 50 mM Tris-HCl (pH = 7.4), and 4-MU in the absence or presence of different concentrations of maidong's components. The compounds were dissolved in DMSO, and the final concentration of DMSO was below 0.5% (v/v). The used incubation time and protein concentration were previously determined to ensure the reaction rate within the linear range. The 4-MU concentration was equal to known K m or S 50 values for each UGT isoform. After 5 min preincubation at 37°C, the incubation reaction was initiated via adding UDPGA to the mixture system. The reactions were quenched by adding 100 μL acetonitrile with 7-hydroxycoumarin (100 μM) as internal standard. Centrifuged at 20000 ×g for 10 min, an aliquot of supernatant was transferred to an autoinjector vial for HPLC analysis. The HPLC system (Shimadzu, Kyoto, Japan) contained a SCL-10A system controller, two LC-10AT pumps, a SIL-10A autoinjector, and a SPD-10AVP UV detector. Chromatographic separation was carried out using a C18 column (4.6 × 200 mm, 5 μm, Kromasil) at a flow rate of 1 mL/min and UV detector at 316 nm. The mobile phase consisted of acetonitrile (A) and H2O containing 0.5% (v/v) formic acid (B). The following gradient condition was used: 0–15 min, 95–40% B; 15–20 min, 10% B; 20–30 min, 95% B.

UGT1A7 = target: T2, UGT1A7 (Homo sapiens, UniProt Q9HAW7); experiment: Recombinant UGT1A7-catalyzed 4-MU glucuronidation inhibition; conditions: pH 7.4, probe 4-methylumbelliferone (4-MU), UGT1A7, 100 μM of compound, 4-MU substrate, read-out: residual activity
T2 construct: purchased BD Gentest Corp. (Woburn, MA, USA); host or cells: baculovirus-infected insect cells
T2 sequence (Q9HAW7 26-530): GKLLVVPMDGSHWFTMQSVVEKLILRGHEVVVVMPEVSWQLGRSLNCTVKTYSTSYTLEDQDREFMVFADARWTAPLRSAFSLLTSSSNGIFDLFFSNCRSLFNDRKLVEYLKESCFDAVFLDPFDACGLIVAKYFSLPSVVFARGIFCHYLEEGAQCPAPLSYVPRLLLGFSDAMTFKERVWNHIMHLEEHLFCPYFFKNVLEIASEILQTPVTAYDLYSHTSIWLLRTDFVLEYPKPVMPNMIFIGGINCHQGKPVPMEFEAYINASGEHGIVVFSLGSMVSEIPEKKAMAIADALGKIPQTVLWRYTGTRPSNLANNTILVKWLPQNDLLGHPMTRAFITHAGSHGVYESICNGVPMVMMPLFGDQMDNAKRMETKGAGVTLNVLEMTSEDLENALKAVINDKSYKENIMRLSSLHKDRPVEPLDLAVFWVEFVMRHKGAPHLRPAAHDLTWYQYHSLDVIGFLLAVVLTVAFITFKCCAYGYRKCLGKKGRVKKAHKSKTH
Excerpt: as §1, §2

UGT1A8 = target: T3, UGT1A8 (Homo sapiens, UniProt Q9HAW9); experiment: Recombinant UGT1A8-catalyzed 4-MU glucuronidation inhibition; conditions: for activity at 100 µM: UGT1A8, 100 μM of compound, 4-MU substrate, read-out: residual activity
T3 construct: purchased BD Gentest Corp. (Woburn, MA, USA); host or cells: baculovirus-infected insect cells
T3 sequence (Q9HAW9 26-530): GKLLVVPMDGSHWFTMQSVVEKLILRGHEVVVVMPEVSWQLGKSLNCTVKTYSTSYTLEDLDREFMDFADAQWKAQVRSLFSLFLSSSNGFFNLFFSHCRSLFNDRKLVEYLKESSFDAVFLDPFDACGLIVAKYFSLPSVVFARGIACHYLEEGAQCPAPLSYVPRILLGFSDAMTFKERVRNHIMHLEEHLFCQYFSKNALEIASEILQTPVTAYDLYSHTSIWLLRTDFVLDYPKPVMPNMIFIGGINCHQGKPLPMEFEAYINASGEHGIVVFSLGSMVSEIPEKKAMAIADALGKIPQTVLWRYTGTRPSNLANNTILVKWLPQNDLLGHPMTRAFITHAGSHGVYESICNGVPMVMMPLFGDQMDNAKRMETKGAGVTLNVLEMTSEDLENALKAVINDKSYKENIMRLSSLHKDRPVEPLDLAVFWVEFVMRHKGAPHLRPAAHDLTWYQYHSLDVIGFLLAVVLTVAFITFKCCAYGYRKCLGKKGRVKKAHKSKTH
Excerpt: as §1, §2
To determine the inhibition kinetic type and parameters (K i), the reaction velocity (V) was determined at multiple concentrations of maidong's components and 4-MU (or TFP). Dixon plot and Lineweaver-Burk plot were used to fit the data. The inhibition kinetic type was evaluated through determining the intersection point in the Dixon and Lineweaver-Burk plots.
K m value is the substrate concentration in which the velocity reached half of the maximum velocity (V max) of the reaction. K i value is the inhibition constant.

[1] = human, pH 7.4, probe 4-methylumbelliferone (4-MU)

SMILES | activity at 100 µM (UGT1A3) | activity at 100 µM (UGT1A7) | activity at 100 µM (UGT1A8; [1]) | Ki (UGT1A8) | inhibition type (UGT1A8; UGT1A8, Dixon and Lineweaver-Burk plots) | inhibition at 100 µM (UGT1A8; human, pH 7.4, probe 4-methylumbelliferone (4-MU), UGT1A8, at 100 μM, read-out: inhibition percent)
Cc1c(O)c(C)c2c(c1O)C(=O)[C@H](Cc1ccc3c(c1)OCO3)CO2 [MA, methylophiopogonanone A] | 35.5 ± 6.1% | 57.5 ± 10.8% | 20.5 ± 2.1% |  |  | 
COc1ccc(C[C@@H]2COc3c(C)c(O)c(C)c(O)c3C2=O)cc1 [MB, methylophiopogonanone B] | 84.2 ± 22.8% | 83.4 ± 5.9% | 85 ± 4.5% |  |  | 
C[C@@H]1CC[C@@]2(OC1)O[C@H]1C[C@H]3[C@@H]4CC=C5C[C@@H](O)C[C@@H](O[C@@H]6O[C@H](C)[C@H](O)[C@H](O[C@@H]7OC[C@@H](O)[C@H](O)[C@H]7O)[C@H]6O[C@@H]6O[C@@H](C)[C@H](O)[C@@H](O)[C@H]6O)[C@]5(C)[C@H]4CC[C@]3(C)[C@H]1[C@@H]2C [OD, ophiopogonin D] | 40.7 ± 0.3% | 144 ± 8.7% | 17.3 ± 0.9% | 40.1 µM | competitively inhibited | 82.7%
C[C@@H]1CC[C@@]2(OC1)O[C@H]1C[C@H]3[C@@H]4CC=C5C[C@@H](O[C@@H]6O[C@H](CO)[C@@H](O)[C@H](O[C@@H]7OC[C@@H](O)[C@H](O)[C@H]7O)[C@H]6O[C@@H]6O[C@@H](C)[C@H](O)[C@@H](O)[C@H]6O)CC[C@]5(C)[C@H]4CC[C@]3(C)[C@H]1[C@@H]2C [OD′, ophiopogonin D′] | 36.5 ± 2.5% | 122 ± 1.3% | 18.9 ± 6.6% |  |  | 
CC1CCC2(OC1)OC1CC3C4CC=C5CC(O)CC(O)C5(C)C4CCC3(C)C1C2C (stereo not drawn) [RU, ruscorectal] | 37.2 ± 18.2% | 52.4 ± 7.4% | 72 ± 3% |  |  | 

From article PMC4229968, “The Inhibition of the Components from Shengmai Injection towards UDP-Glucuronosyltransferase” (Evidence-based Complementary and Alternative Medicine : eCAM, 2014)
